Source: article PMC11396129, “Oxindole–benzothiazole hybrids as CDK2 inhibitors and anticancer agents: design, synthesis and biological evaluation” (BMC Chemistry, 2024)

Experiments:
[1] = tested on: CCRF-CEM; experiment: NCI 60 panel growth inhibition (SRB), leukemia; format: cell-based, human; conditions: 10 μM
Method: (§1) Screening of cytotoxic activity against a panel of sixty human tumor cell lines The selected compounds by NCI were evaluated for their anticancer activity in a two- stage process. […] Then, the output from the single dose screen is reported as a mean graph. […] Assay protocol. […] For a typical screening experiment, cells are inoculated into 96 well microtiter plates in 100 µL at plating densities ranging from 5000 to 40,000 cells/well depending on the doubling time of individual cell lines. […] After 24 h, two plates of each cell line are fixed in situ with TCA, to represent a measurement of the cell population for each cell line at the time of drug addition (Tz). The experimental drugs are solubilized in dimethyl sulfoxide at 400-fold the desired final maximum test concentration and stored frozen prior to use. At the time of drug addition, an aliquot of frozen concentrate is thawed and diluted to twice the desired final maximum test concentration with complete medium containing 50 µg/mL gentamicin. Additional four, 10-fold or ½ log serial dilutions are made to provide a total of five drug concentrations plus control. […] For adherent cells, the assay is terminated by the addition of cold TCA. […] The supernatant is discarded, and the plates are washed five times with tap water and air dried. […] Using the seven absorbance measurements [time zero, (Tz), control growth, (C), and test growth in the presence of drug at the five concentration levels (Ti)], the percentage growth is calculated at each of the drug concentrations levels. Percentage growth inhibition is calculated as: [(Ti Tz)/(C–Tz)] x 100 for concentrations for which Ti>/=Tz and [(Ti-Tz)/Tz] x 100 for concentrations for which Ti < Tz. Three dose response parameters are calculated for each experimental agent. […] The drug concentration resulting in total growth inhibition (TGI) is calculated from Ti = Tz. […] Values are calculated for each of these three parameters if the level of activity is reached; however, if the effect is not reached or is exceeded, the value for that parameter is expressed as greater or less than the maximum or minimum concentration tested.

[2] = tested on: HL-60(TB); experiment: NCI 60 panel growth inhibition (SRB), leukemia; format: cell-based, human; conditions: HL-60(TB), 10 μM
Method: as §1

[3] = tested on: K-562; experiment: NCI 60 panel growth inhibition (SRB), leukemia; format: cell-based, human; conditions: K-562, 10 μM
Method: as §1

[4] = tested on: MOLT-4; experiment: NCI 60 panel growth inhibition (SRB), leukemia; format: cell-based, human; conditions: MOLT-4, 10 μM
Method: as §1

[5] = tested on: RPMI-8226; experiment: NCI 60 panel growth inhibition (SRB), leukemia; format: cell-based, human; conditions: RPMI-8226, 10 μM
Method: as §1

[6] = tested on: SR; experiment: NCI 60 panel growth inhibition (SRB), leukemia; format: cell-based, human; conditions: 10 μM
Method: as §1

[7] = tested on: SF-268; experiment: NCI 60 panel growth inhibition (SRB), CNS cancer; format: cell-based, human; conditions: SF-268, 10 μM
Method: as §1

[8] = tested on: SF-295; experiment: NCI 60 panel growth inhibition (SRB), CNS cancer; format: cell-based, human; conditions: SF-295, 10 μM
Method: as §1

[9] = tested on: SF-539; experiment: NCI 60 panel growth inhibition (SRB), CNS cancer; format: cell-based, human; conditions: SF-539, 10 μM
Method: as §1

[10] = tested on: SNB-19; experiment: NCI 60 panel growth inhibition (SRB), CNS cancer; format: cell-based, human; conditions: SNB-19, 10 μM
Method: as §1

[11] = tested on: SNB-75; experiment: NCI 60 panel growth inhibition (SRB), CNS cancer; format: cell-based, human; conditions: SNB-75, 10 μM
Method: as §1

[12] = tested on: U251; experiment: NCI 60 panel growth inhibition (SRB), CNS cancer; format: cell-based, human; conditions: U251, 10 μM
Method: as §1

[13] = tested on: IGROV1; experiment: NCI 60 panel growth inhibition (SRB), ovarian cancer; format: cell-based, human; conditions: IGROV1, 10 μM
Method: as §1

[14] = tested on: NCI/ADR-RES; experiment: as above; format: cell-based, human; conditions: 10 μM
Method: as §1

[15] = tested on: OVCAR-3; experiment: as above; format: cell-based, human; conditions: OVCAR-3, 10 μM
Method: as §1

[16] = tested on: OVCAR-4; experiment: as above; format: cell-based, human; conditions: OVCAR-4, 10 μM
Method: as §1

[17] = tested on: OVCAR-5; experiment: as above; format: cell-based, human; conditions: OVCAR-5, 10 μM
Method: as §1

[18] = tested on: OVCAR-8; experiment: as above; format: cell-based, human; conditions: OVCAR-8, 10 μM
Method: as §1

[19] = tested on: SK-OV-3; experiment: as above; format: cell-based, human; conditions: SK-OV-3, 10 μM
Method: as §1

[20] = tested on: 786-0; experiment: NCI 60 panel growth inhibition (SRB), renal cancer; format: cell-based, human; conditions: 786-0, 10 μM
In short: (§2)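 Plating density: 5000–40,000 cells/well. Drug: DMSO concentrate diluted into medium plus gentamicin, five levels. Fixation: TCA. Read-out: SRB absorbance, converted to percentage growth against Tz and C.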

[21] = tested on: A498; experiment: NCI 60 panel growth inhibition (SRB), renal cancer; format: cell-based, human; conditions: A498, 10 μM
In short: as §2

[22] = tested on: ACHN; experiment: NCI 60 panel growth inhibition (SRB), renal cancer; format: cell-based, human; conditions: 10 μM
In short: as §2

[23] = tested on: CAKI-1; experiment: NCI 60 panel growth inhibition (SRB), renal cancer; format: cell-based, human; conditions: CAKI-1, 10 μM
In short: as §2

[24] = tested on: SN12C; experiment: NCI 60 panel growth inhibition (SRB), renal cancer; format: cell-based, human; conditions: 10 μM
In short: as §2

[25] = tested on: NCI 60 cancer cell line panel; experiment: NCI 60 panel growth inhibition (SRB), whole panel; format: cell-based, human; conditions: mean over NCI 60 panel, 10 μM
Method: as §1

SMILES: COc1cccc(-c2nc3ccccc3s2)c1OCC(=O)NN=C1C(=O)Nc2ccccc21 [Compound 9g, 2-(2-(Benzo[d]thiazol-2-yl)-6-methoxyphenoxy)-N′-(2-oxoindolin-3-ylidene)acetohydrazide]
- GI% [1]: 41.07%
- GI% [2]: 15.30%
- GI% [3]: 32.23%
- GI% [4]: 49.06%
- GI% [5]: 50.80%
- GI% [6]: 18.95%
- GI% [7]: 5.11%
- GI% [8]: 29.36%
- GI% [9]: 9.46%
- GI% [10]: 13.10%
- GI% [11]: – (GI% < 5%)
- GI% [12]: 8.36%
- GI% [13]: 7.95%
- GI% [14]: 28.45%
- GI% [15]: – (GI% < 5%)
- GI% [16]: 27.14%
- GI% [17]: – (GI% < 5%)
- GI% [18]: 10.62%
- GI% [19]: 8.22%
- GI% [20]: – (GI% < 5%)
- GI% [21]: – (GI% < 5%)
- GI% [22]: 14.78%
- GI% [23]: 34.75%
- GI% [24]: 18.49%
- Mean GI% [25]: 15.46%
- melting point: 246 to 248 °C

SMILES: COc1cccc(-c2nc3ccccc3s2)c1OCC(=O)NN=C1C(=O)Nc2ccc([N+](=O)[O-])cc21 [Compound 9j, 2-(2-(Benzo[d]thiazol-2-yl)-6-methoxyphenoxy)-N′-(5-nitro-2-oxoindolin-3-ylidene)acetohydrazide]
- GI% [1]: 34.81%
- GI% [2]: – (GI% < 5%)
- GI% [3]: – (GI% < 5%)
- GI% [4]: 9.01%
- GI% [5]: 22.11%
- GI% [6]: – (GI% < 5%)
- GI% [7]: – (GI% < 5%)
- GI% [8]: 11.71%
- GI% [9]: – (GI% < 5%)
- GI% [10]: 5.77%
- GI% [11]: – (GI% < 5%)
- GI% [12]: – (GI% < 5%)
- GI% [13]: – (GI% < 5%)
- GI% [14]: 6.51%
- GI% [15]: – (GI% < 5%)
- GI% [16]: 5.61%
- GI% [17]: – (GI% < 5%)
- GI% [18]: – (GI% < 5%)
- GI% [19]: – (GI% < 5%)
- GI% [20]: – (GI% < 5%)
- GI% [21]: – (GI% < 5%)
- GI% [22]: 11.44%
- GI% [23]: 28.19%
- GI% [24]: 11.67%
- Mean GI% [25]: – (GI% < 5%)
- melting point: 276 to 278 °C

SMILES: COc1ccc2c(c1)C(=NNC(=O)COc1c(OC)cccc1-c1nc3ccccc3s1)C(=O)N2 [Compound 9i, 2-(2-(Benzo[d]thiazol-2-yl)-6-methoxyphenoxy)-N′-(5-methoxy-2-oxoindolin-3-ylidene)acetohydrazide]
- GI% [1]: 44.24%
- GI% [2]: – (GI% < 5%)
- GI% [3]: 21.95%
- GI% [4]: 45.30%
- GI% [5]: 47.68%
- GI% [6]: – (GI% < 5%)
- GI% [7]: – (GI% < 5%)
- GI% [8]: 13.86%
- GI% [9]: 6.47%
- GI% [10]: 11.58%
- GI% [11]: – (GI% < 5%)
- GI% [12]: – (GI% < 5%)
- GI% [13]: – (GI% < 5%)
- GI% [14]: 10.58%
- GI% [15]: – (GI% < 5%)
- GI% [16]: 20.14%
- GI% [17]: – (GI% < 5%)
- GI% [18]: 11.59%
- GI% [19]: 9.98%
- GI% [20]: 5.62%
- GI% [21]: – (GI% < 5%)
- GI% [22]: 6.51%
- GI% [23]: 24.98%
- GI% [24]: 14.66%
- Mean GI% [25]: 6.32%
- melting point: 144 to 146 °C

SMILES: O=C(COc1ccccc1-c1nc2ccccc2s1)NN=C1C(=O)Nc2ccccc21 [Compound 9a, 2-(2-(Benzo[d]thiazol-2-yl)phenoxy)-N′-(2-oxoindolin-3-ylidene)acetohydrazide]
- GI% [1]: 20.22%
- GI% [2]: – (GI% < 5%)
- GI% [3]: – (GI% < 5%)
- GI% [4]: 8.23%
- GI% [5]: 21.80%
- GI% [6]: – (GI% < 5%)
- GI% [7]: 6.56%
- GI% [8]: 14.46%
- GI% [9]: 5.56%
- GI% [10]: 6.15%
- GI% [11]: – (GI% < 5%)
- GI% [12]: – (GI% < 5%)
- GI% [13]: – (GI% < 5%)
- GI% [14]: – (GI% < 5%)
- GI% [15]: – (GI% < 5%)
- GI% [16]: 13.08%
- GI% [17]: – (GI% < 5%)
- GI% [18]: – (GI% < 5%)
- GI% [19]: – (GI% < 5%)
- GI% [20]: – (GI% < 5%)
- GI% [21]: – (GI% < 5%)
- GI% [22]: – (GI% < 5%)
- GI% [23]: 22.46%
- GI% [24]: 7.64%
- melting point: 238 to 240 °C
